The experiment addresses T1, ER (Homo sapiens, UniProt P03372).
T1 construct: transfected in MCF7 cells (containing endogenous ER); endogenous in cells; host or cells: MCF7 cells
T1 sequence (P03372 1-595): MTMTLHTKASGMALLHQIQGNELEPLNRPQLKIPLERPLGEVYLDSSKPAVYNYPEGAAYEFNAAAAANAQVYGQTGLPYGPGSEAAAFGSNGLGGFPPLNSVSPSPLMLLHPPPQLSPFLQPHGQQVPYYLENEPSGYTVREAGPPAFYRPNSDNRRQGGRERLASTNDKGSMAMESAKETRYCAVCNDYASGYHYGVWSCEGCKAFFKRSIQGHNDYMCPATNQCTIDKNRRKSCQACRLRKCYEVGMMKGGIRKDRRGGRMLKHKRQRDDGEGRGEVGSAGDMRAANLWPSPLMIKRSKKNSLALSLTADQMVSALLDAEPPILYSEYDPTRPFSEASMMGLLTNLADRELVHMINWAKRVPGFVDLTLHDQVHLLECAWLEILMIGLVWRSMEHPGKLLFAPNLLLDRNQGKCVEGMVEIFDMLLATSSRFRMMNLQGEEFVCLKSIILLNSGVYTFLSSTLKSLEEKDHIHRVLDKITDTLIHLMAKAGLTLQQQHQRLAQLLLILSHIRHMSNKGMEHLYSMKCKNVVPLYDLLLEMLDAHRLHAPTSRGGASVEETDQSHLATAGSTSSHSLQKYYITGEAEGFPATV
Kind of experiment: ER transcription assay (MCF7 cells), ERE-luciferase reporter. It is filed as cell-based. As to conditions: MCF7 cells, ER reporter gene, 0.1 nM 17β estradiol, 24 hours; read-out: MCF7 IC50 (inflection point of the inhibition of transcription in MCF7 cells). The source says:
ER Transcription Assay (MCF7 Cells)
The ER transcription assay is a reporter assay that is based on the ability of ER to induce transcription from a luciferase reporter gene containing estrogen response elements (EREs) in the promoter/enhancer region. When the reporter gene is transfected in MCF7 cells (containing endogenous ER), transcription is reflected by the level of luciferase expression.
A day before transfection, cells are split into a T75 flask at a cell density of 300,000 cells/mL (10 mL total) and allowed to attach overnight in a humidified CO2 incubator at 37° C.
Approximately 20 ug DNA is mixed in OptiMEM (Invitrogen) to a total volume of 650 μL. Following incubation, the OptiMEM-DNA mixture is added to the OptiMEM-Lipofectin mix and incubated for 15 minutes at 37° C. The DNA-Lipofectin mixture is then added directly to the T75 flask and the flask is returned to the incubator.
After overnight incubation, compound is added to individual wells of a 96-well plate in a 10 μL volume of media at 10× concentration along with 17β estradiol whose final concentration is 0.1 nM. Normally, DMSO (used as a vehicle) is included to achieve a final concentration of 0.1% when added to the cells. Transfected cells are trypsinized, resuspended in DMEM/F12/10% charcoal-stripped serum and added to the 96-well plate at 25,000 cells/well in 90 μL of media. The plate is then returned to the incubator for 24 hours.
After incubation with compounds for 24 hours, Firefly and Renilla luciferase activities are measured to determine ER transcriptional activity. Media is removed from 96-well plates by decanting and blotting on paper towels.
One second total read time after a one second delay.
One second total read time after one second delay. If Firefly luciferase signal is high, Renilla assay must be done an hour after the Firefly assay due to incomplete squelching of Firefly signal.
The data describing the antagonist and degradation properties for the examples is compiled in table 10. The column titled MCF7 IC50 reports the inflection point of the inhibition of transcription in MCF7 cells as described above. Percentage ERα remaining reports the remaining ERα protein measured at 10 μM concentration of the ligand as described above. The column ERα IC50 reports the inflection point of the degradation in response to the ligand concentration.

Each structure is given as a SMILES string.

The IC50 is the concentration needed to halve the response being measured. Consider `CC(=O)c1ccccc1-c1sc2cc(O)ccc2c1Oc1ccc(/C=C/C(=O)O)cc1` [Example 19, (E)-3-(4-((2-(2-acetylphenyl)-6-hydroxybenzo[b]-thiophen-3-yl)oxy)phenyl)-acrylic acid], for which the half-maximal inhibitory concentration (IC50) was found to be 0.218 µM.

`Cc1noc(C)c1-c1sc2cc(O)ccc2c1Oc1ccc(/C=C/C(=O)O)cc1` [Example 15, (E)-3-(4-((2-(3,5-dimethylisoxazol-4-yl)-6-hydroxybenzo-[b]thiophen-3-yl)oxy)-phenyl)acrylic acid]: the IC50 came out at 0.404 µM.

For the compound `NC(=O)/C=C/c1ccc(Oc2c(-c3ccc(O)cc3)sc3cc(O)ccc23)cc1` [Example 64, (E)-3-(4-((6-hydroxy-2-(4-hydroxyphenyl)-benzo[b]thiophen-3-yl)oxy)phenyl)acrylamide], the IC50 is 0.04 µM.

In the case of `Cn1nnnc1/C=C/c1ccc(Oc2c(-c3ccc(O)cc3)sc3cc(O)ccc23)cc1` [Example 54, (E)-2-(4-hydroxyphenyl)-3-(4-(2-(1-methyl-1H-tetrazol-5-yl)vinyl)-phenoxy)benzo[b]thiophen-6-ol], the IC50 turned out to be 0.001 µM.

`Cc1nnc(/C=C/c2ccc(Oc3c(-c4ccc(F)cc4C)sc4cc(O)ccc34)cc2)o1` [Example 46, (E)-2-(4-fluoro-2-methylphenyl)-3-(4-(2-(5-methyl-1,3,4-oxadiazol-2-yl)vinyl)phenoxy)benzo[b]thiophen-6-ol]: the IC50 came out at 0.108 µM.

Regarding `O=C(O)/C=C/c1ccc(Oc2c(-c3ccc(O)cc3)sc3cc(O)ccc23)cn1` [Example 29, (E)-3-(5-((6-hydroxy-2-(4-hydroxyphenyl)benzo[b]thiophen-3-yl)oxy)pyridin-2-yl)acrylic acid], the half-inhibitory concentration (IC50) was 7.75 µM.

Take `CCCn1nnnc1/C=C/c1ccc(Oc2c(-c3ccc(F)cc3C)sc3cc(O)ccc23)cc1` [Example 53, (E)-2-(4-fluoro-2-methylphenyl)-3-(4-(2-(1-propyl-1H-tetrazol-5-yl)vinyl)phenoxy) benzo[b]thiophen-6-ol]: the IC50 amounted to 0.32 µM.

On to `C/C(=C\C(=O)O)c1ccc(Oc2c(-c3ccc(O)cc3)sc3cc(O)ccc23)cc1` [Example 62, (E)-3-(4-((6-hydroxy-2-(4-hydroxyphenyl)-benzo[b]thiophen-3-yl)oxy)phenyl)but-2-enoic acid], for which the IC50 was determined as 0.316 µM.

For the compound `Cc1cc(-c2sc3cc(O)ccc3c2Oc2ccc(/C=C/C(=O)O)cc2)ccc1O` [Example 61, (E)-3-(4-((6-hydroxy-2-(4-hydroxy-3-methylphenyl)benzo[b]-thiophen-3-yl)oxy)phenyl)acrylic acid], the IC50 stood at 0.327 µM.

Take `O=c1nc(/C=C/c2ccc(Oc3c(-c4ccc(O)cc4)sc4cc(O)ccc34)cc2)cc(C(F)(F)F)[nH]1` [Example 50, (E)-4-(4-((6-hydroxy-2-(4-hydroxyphenyl)-benzo[b]thiophen-3-yl)oxy)styryl)-6-(trifluoromethyl)-pyrimidin-2(1H)-one]: the 50% inhibitory concentration (IC50) is 0.154 µM.

With `O=C(O)/C=C/c1ccc(Oc2c(-c3ccc(C(F)(F)F)cc3C(F)(F)F)sc3cc(O)ccc23)cc1` [Example 11, (E)-3-(4-((2-(2,4-bis(trifluoromethyl)-phenyl)-6-hydroxy-benzo[b]thiophen-3-yl)oxy)phenyl)-acrylic acid], the IC50 came to 0.053 µM.

For `O=C(O)/C=C/c1ccc(Oc2c(-c3ccccc3)sc3cc(O)ccc23)cc1` [Example 60, (E)-3-(4-((6-hydroxy-2-phenylbenzo[b]thiophen-3-yl)oxy)phenyl)-acrylic acid], the IC50 is 2.31 µM.

With `O=C(O)/C=C/c1ccc(Oc2c(-c3ccccc3Cl)sc3cc(O)ccc23)cc1` [Example 9, (E)-3-(4-((2-(2-chlorophenyl)-6-hydroxybenzo[b]-thiophen-3-yl)oxy)phenyl)-acrylic acid], the IC50 is 0.407 µM.

Turning to `Cc1nnc(/C=C/c2ccc(Oc3c(-c4ccc(F)cc4C)sc4cc(O)ccc34)cc2)[nH]1` [Example 49, (E)-2-(4-fluoro-2-methylphenyl)-3-(4-(2-(5-methyl-4H-1,2,4-triazol-3-yl)vinyl)phenoxy)benzo[b]thiophen-6-ol], the IC50 was determined as 0.041 µM.

On to `O=C(O)CCc1ccc(Oc2c(-c3ccc(O)cc3)sc3cc(O)ccc23)cc1` [Example 1, 3-(4-((6-hydroxy-2-(4-hydroxyphenyl)benzo[b]thiophen-3-yl)oxy)phenyl)propanoic acid], for which the IC50 worked out at 0.457 µM.

With `O=C(O)/C=C/c1ccc(Oc2c(-c3ccc(C(F)(F)F)cc3)sc3cc(O)ccc23)cc1` [Example 3, (E)-3-(4-((6-hydroxy-2-(4-(trifluoromethyl)phenyl)benzo[b]thiophen-3-yl)oxy)phenyl)acrylic acid], the IC50 came to 0.941 µM.

As to `COC(=O)/C=C/c1ccc(Oc2c(-c3ccc(F)cc3)sc3cc(O)ccc23)cc1` [Example 36, (E)-methyl 3-(4-((2-(4-fluorophenyl)-6-hydroxybenzo[b]thiophen-3-yl)oxy)phenyl)-acrylate], the IC50 turned out to be 0.137 µM.

In the case of `O=C(O)/C=C/c1ccc(Oc2c(-c3ccc(O)cc3)sc3c(F)c(O)c(F)cc23)cc1` [Example 38, (E)-3-(4-((5,7-difluoro-6-hydroxy-2-(4-hydroxyphenyl)benzo[b]-thiophen-3-yl)oxy)phenyl)acrylic acid], the IC50 was 0.152 µM.

Regarding `COc1ccc(-c2sc3cc(O)ccc3c2Oc2ccc(/C=C/C(=O)O)cc2)cc1` [Example 26, (E)-3-(4-((6-hydroxy-2-(4-methoxyphenyl)benzo[b]thiophen-3-yl)oxy)phenyl)acrylic acid], the IC50 is 0.647 µM.

With `Cn1nnnc1/C=C/c1ccc(Oc2c(-c3ccc(F)cc3)sc3cc(O)ccc23)cc1` [Example 52, (E)-2-(4-fluorophenyl)-3-(4-(2-(1-methyl-1H-tetrazol-5-yl)vinyl)phenoxy)benzo [b]thiophen-6-ol], the IC50 stood at 5.98 µM.

`O=C(O)/C=C/c1ccc(Oc2c(-c3ccc(OC(F)(F)F)cc3)sc3cc(O)ccc23)cc1` [Example 59, (E)-3-(4-((6-hydroxy-2-(4-(trifluoromethoxy)-phenyl)benzo[b]thiophen-3-yl)oxy)phenyl)-acrylic acid]: the IC50 is 1.25 µM.

For `O=C(/C=C/c1ccc(Oc2c(-c3ccc(O)cc3)sc3cc(O)ccc23)cc1)NCCO` [Example 65, (E)-3-(4-((6-hydroxy-2-(4-hydroxyphenyl)benzo[b]-thiophen-3-yl)oxy)phenyl)-N-(2-hydroxyethyl)acrylamide], the IC50 amounted to 0.055 µM.

In the case of `O=C(/C=C/c1ccc(Oc2c(-c3ccc(O)cc3)sc3cc(O)ccc23)cc1)NCCC(F)(F)F` [Example 31, (E)-3-(4-((6-hydroxy-2-(4-hydroxyphenyl)benzo[b]thiophen-3-yl)oxy)phenyl)-N-(3,3,3-trifluoropropyl)acrylamide], the IC50 turned out to be 0.01 µM.

Turning to `Cc1ccccc1-c1sc2cc(O)ccc2c1Oc1ccc(/C=C/C(=O)O)cc1` [Example 5, (E)-3-(4-((6-hydroxy-2-(o-tolyl)benzo-[b]thiophen-3-yl)oxy)-phenyl)acrylic acid], the IC50 worked out at 0.089 µM.

For `CNC(=O)/C=C/c1ccc(Oc2c(-c3ccc(C(F)(F)F)cc3)sc3cc(O)ccc23)cc1` [Example 63, (E)-3-(4-((6-hydroxy-2-(4-(trifluoromethyl)-phenyl)benzo[b]thiophen-3-yl)oxy)phenyl)-N-methylacrylamide], the IC50 was determined as 0.185 µM.

Consider `C[C@H](O)c1ccccc1-c1sc2cc(O)ccc2c1Oc1ccc(/C=C/C(=O)O)cc1` [Example 25, (S,E)-3-(4-((6-hydroxy-2-(2-(1-hydroxyethyl)phenyl)-benzo[b]thiophen-3-yl)oxy)phenyl)acrylic acid], for which the IC50 was found to be 0.179 µM.

On to `Cn1nnc(/C=C/c2ccc(Oc3c(-c4ccc(O)cc4)sc4cc(O)ccc34)cc2)n1` [Example 55, (E)-2-(4-hydroxyphenyl)-3-(4-(2-(2-methyl-2H-tetrazol-5-yl)vinyl)-phenoxy)benzo[b]-thiophen-6-ol], for which the IC50 is 0.003 µM.
